Experimental findings from the NIST ThermoML archive (doi:10.1016/j.jct.2015.09.032) are described below.

Numbers after ± are expanded uncertainties.

The conditions of data set [1]: Crystal; DTA.
Data set [2] is described as follows: Molar enthalpy of transition or fusion. The note with it: Crystal; DSC.

On to `CN(C)CCOC(c1ccccc1)c1ccccc1.Cl` [2-diphenylmethoxy-N,N-dimethylethanamine hydrochloride], for which the Normal melting temperature in data set [1] was found to be 169.2 ± 0.61 °C. For the same compound, the “Molar enthalpy of transition or fusion” value in data set [2] amounted to 8.72 ± 0.406 kcal/mol.
